This note sets out measurements from article doi:10.1101/2023.03.24.534094v2 (biorxiv, 2023).

Like-named read-outs stand apart in the source and are kept apart here.

Holding throughout (test): biochemical
One assay deals with T1, BMPR2 (Homo sapiens, UniProt Q13873).
T1 sequence (Q13873 1-1038): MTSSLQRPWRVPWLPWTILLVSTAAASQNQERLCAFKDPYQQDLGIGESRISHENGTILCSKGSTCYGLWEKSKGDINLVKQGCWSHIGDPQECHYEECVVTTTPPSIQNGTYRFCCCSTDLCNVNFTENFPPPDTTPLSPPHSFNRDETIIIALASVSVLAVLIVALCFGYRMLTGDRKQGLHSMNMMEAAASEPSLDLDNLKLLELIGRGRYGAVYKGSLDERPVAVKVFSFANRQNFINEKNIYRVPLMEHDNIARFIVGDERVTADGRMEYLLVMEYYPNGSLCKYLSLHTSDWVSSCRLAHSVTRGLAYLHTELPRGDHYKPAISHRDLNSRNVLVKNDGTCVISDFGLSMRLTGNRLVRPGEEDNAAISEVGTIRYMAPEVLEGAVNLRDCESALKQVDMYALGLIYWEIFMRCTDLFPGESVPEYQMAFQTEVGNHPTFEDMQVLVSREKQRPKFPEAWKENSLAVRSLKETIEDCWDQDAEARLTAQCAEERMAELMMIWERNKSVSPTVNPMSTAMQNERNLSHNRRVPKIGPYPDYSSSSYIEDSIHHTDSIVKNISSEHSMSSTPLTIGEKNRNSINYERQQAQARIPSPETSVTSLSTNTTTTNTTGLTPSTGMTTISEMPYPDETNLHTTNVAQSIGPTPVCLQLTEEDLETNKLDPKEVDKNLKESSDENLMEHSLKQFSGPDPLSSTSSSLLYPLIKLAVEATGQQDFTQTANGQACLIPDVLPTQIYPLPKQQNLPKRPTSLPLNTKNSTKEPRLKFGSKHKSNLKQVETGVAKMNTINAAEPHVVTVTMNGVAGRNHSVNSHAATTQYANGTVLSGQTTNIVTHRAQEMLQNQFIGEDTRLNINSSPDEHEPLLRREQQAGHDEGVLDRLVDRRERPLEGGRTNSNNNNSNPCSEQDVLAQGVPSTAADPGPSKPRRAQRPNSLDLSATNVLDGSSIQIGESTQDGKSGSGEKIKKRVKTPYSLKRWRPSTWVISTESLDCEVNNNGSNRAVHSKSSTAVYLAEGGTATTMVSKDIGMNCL

The target in the next assay is CK2a1 (Homo sapiens, UniProt P68400).
Another assay deals with T2, CaMK4 (Homo sapiens, UniProt Q16566).
T2 sequence (Q16566 1-473): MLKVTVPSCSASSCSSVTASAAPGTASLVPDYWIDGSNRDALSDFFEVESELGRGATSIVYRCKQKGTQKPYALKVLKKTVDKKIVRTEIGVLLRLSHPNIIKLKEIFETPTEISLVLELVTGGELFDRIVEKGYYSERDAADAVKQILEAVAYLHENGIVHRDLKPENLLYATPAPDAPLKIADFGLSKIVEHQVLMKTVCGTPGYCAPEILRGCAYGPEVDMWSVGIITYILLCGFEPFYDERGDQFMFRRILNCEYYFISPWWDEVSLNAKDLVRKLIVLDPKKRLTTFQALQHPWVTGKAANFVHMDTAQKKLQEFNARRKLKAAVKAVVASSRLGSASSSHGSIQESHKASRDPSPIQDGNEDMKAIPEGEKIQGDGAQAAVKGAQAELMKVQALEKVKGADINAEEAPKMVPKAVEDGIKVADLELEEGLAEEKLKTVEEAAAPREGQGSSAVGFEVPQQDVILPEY

The next assay addresses T3, DRAK1 (Homo sapiens, UniProt Q9UEE5).
T3 sequence (Q9UEE5 1-414): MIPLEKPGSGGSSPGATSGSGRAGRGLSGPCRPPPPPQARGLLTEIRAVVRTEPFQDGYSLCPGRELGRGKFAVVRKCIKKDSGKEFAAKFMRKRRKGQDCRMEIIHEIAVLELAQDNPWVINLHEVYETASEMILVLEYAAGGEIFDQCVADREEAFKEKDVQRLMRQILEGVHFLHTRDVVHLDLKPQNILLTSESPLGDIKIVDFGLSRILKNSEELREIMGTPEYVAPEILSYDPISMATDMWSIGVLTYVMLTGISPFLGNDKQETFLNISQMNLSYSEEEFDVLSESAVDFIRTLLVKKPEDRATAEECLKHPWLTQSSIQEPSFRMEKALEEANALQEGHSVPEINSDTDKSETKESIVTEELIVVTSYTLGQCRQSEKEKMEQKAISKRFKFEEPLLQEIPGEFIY

The target in a further assay is T4, MAP2K4 (Homo sapiens, UniProt P45985).
T4 sequence (P45985 1-399): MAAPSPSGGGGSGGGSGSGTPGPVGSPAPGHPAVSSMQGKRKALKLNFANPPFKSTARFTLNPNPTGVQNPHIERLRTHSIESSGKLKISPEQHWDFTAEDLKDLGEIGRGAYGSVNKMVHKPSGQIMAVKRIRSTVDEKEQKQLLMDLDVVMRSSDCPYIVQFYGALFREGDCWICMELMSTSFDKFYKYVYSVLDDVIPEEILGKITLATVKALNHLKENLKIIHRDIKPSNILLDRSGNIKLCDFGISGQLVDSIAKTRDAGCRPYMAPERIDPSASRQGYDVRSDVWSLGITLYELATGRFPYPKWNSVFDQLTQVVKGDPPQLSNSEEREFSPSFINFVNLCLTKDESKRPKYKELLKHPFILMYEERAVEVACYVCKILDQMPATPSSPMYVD

The next assay deals with STLK3 (Homo sapiens, UniProt Q9UEW8).

CK2a1, sequence (P68400 whole entry): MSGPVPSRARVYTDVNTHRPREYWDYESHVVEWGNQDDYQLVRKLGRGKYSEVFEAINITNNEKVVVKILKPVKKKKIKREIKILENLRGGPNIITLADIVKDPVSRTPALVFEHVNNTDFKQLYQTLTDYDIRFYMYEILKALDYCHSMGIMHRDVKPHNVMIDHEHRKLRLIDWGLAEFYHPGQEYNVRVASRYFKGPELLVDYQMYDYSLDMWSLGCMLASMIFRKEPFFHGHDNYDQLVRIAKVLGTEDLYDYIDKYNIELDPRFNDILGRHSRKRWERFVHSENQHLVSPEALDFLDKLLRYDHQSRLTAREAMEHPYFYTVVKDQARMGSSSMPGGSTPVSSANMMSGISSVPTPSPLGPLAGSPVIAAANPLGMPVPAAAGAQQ

For `CNc1ncc2cc(-c3cc(Cl)ccc3Cl)c(=O)n(CCCCN)c2n1` [compound 8, 8-(4-Aminobutyl)-6-(2,5-dichlorophenyl)-2-(methylamino)pyrido[2,3-d]pyrimidin-7(8H)-one], the ΔTm at 10 µM turned out to be 0.2 °C at BMPR2 (read-out: dTm 8); 1.1 °C at CK2a1 (read-out: dTm 8); 0.1 °C at CaMK4 (read-out: dTm 8); 1.1 °C at DRAK1 (read-out: dTm 8); 2.7 °C at MAP2K4 (read-out: dTm 8); 0.2 °C on STLK3 (read-out: dTm 8).
Regarding `CNc1ncc2cc(-c3cc(Br)ccc3Br)c(=O)n(CCCCN)c2n1` [compound 11, 8-(4-Aminobutyl)-6-(2,5-dibromophenyl)-2-(methylamino)pyrido[2,3-d]pyrimidin-7(8H)-one], the ΔTm at 10 µM at BMPR2 (read-out: dTm 11) was 0 °C; at CK2a1 (read-out: dTm 11), 1.1 °C; on CaMK4 (read-out: dTm 11), 0.1 °C; on DRAK1 (read-out: dTm 11), -0.8 °C; at MAP2K4 (read-out: dTm 11) it was 3 °C; at STLK3 (read-out: dTm 11), 0.3 °C.
As to `CNc1ncc2cc(-c3cc(C(F)(F)F)ccc3Cl)c(=O)n(CCCCN)c2n1` [compound 9, 8-(4-Aminobutyl)-6-(2-chloro-5-(trifluoromethyl)phenyl)-2-(methylamino)pyrido[2,3-d]pyrimidin-7(8H)-one], the ΔTm at 10 µM at BMPR2 (read-out: dTm 9) is 0.1 °C; on CK2a1 (read-out: dTm 9), 0.1 °C; at CaMK4 (read-out: dTm 9), 0.1 °C; on DRAK1 (read-out: dTm 9), -1.1 °C; at MAP2K4 (read-out: dTm 9), 2.3 °C; at STLK3 (read-out: dTm 9) it was 0.3 °C.
For `CNc1ncc2cc(-c3cc(F)c(-c4cccc(C)n4)cc3F)c(=O)n(CCCCN)c2n1` [compound 12, 8-(4-Aminobutyl)-6-(2,5-difluoro-4-(6-methylpyridin-2-yl)phenyl)-2-(methylamino)pyrido[2,3-d]pyrimidin-7(8H)-one], the ΔTm at 10 µM on BMPR2 (read-out: dTm 12) was -0.2 °C; on CK2a1 (read-out: dTm 12), -0.2 °C; at CaMK4 (read-out: dTm 12), 2.9 °C; at DRAK1 (read-out: dTm 12) it was 0 °C; at MAP2K4 (read-out: dTm 12), 5.4 °C; on STLK3 (read-out: dTm 12), 12.1 °C.
With `CNc1ncc2cc(-c3cc(Cl)ccc3Br)c(=O)n(CCCCN)c2n1` [compound 10, 8-(4-Aminobutyl)-6-(2-bromo-5-chlorophenyl)-2-(methylamino)pyrido[2,3-d]pyrimidin-7(8H)-one], the ΔTm at 10 µM was 0 °C on BMPR2 (read-out: dTm 10); 1.3 °C at CK2a1 (read-out: dTm 10); 0.1 °C on CaMK4 (read-out: dTm 10); -0.8 °C on DRAK1 (read-out: dTm 10); 3 °C on MAP2K4 (read-out: dTm 10); 0.3 °C at STLK3 (read-out: dTm 10).
